Experimental data reported in US20220090998A1, “URINE STABILIZATION” (QIAGEN GmbH, priority 2019, published 2022).

Columns and labels:
[1] = tested on: human Y-chromosomale DYS14 gene, 66 bp amplicon; assay: Real time PCR for Y-chromosomal DYS14 DNA: preservation of male cell-free DNA spiked into female urine
Description: (§1) Cell-free DNA from 4-4.8 ml stabilized or unstabilized urine was isolated with the QIAsymphony PAXgene Blood ccfDNA Kit (QIAGEN kit) protocol.
To measure the degradation of cell-free DNA, the relative yield of male cell-free DNA spiked into female samples was analyzed. A real time PCR assay on RotorGene Q (QIAGEN GmbH) was performed with 8 μl of eluate.
Urine from one donor was centrifuged twice to remove all cells from the urine for spike-in into female urine. Urine was collected in larger bottles from two female and two male donors. In case of the two female donors 25 ml centrifuged and therefore cell-free male urine was added to the 200 ml female urine. Approximately 120 ml urine from each donor was filled into BD Vacutainer Urine Collection Cups. Urine was transferred from the cups into two spray dried EDTA tubes, one PAXgene Blood ccfDNA tube and one Streck cell-free DNA BCT tube per donor. One of the EDTA tubes per donor was opened and 1.7 ml of stabilization reagent R1 was added. All tubes were carefully inverted 5 times to mix the urine with the components.
(§2) Cell-free DNA was subsequently purified on the QIAsymphony either directly after collection (t0) or after 1, 3 and 9 days incubation at room temperature. […] Relative yield of Y-chromosomale DYS14 DNA was determined from duplicate samples by real time PCR (no PCR replicates).
Urine from one donor was centrifuged twice to remove all cells from the urine for spike in into female urine. 200 ml urine each from six female donors were collected in large bottles and mixed with 25 ml cell-free male urine directly after collection. Aliquots of 10 ml urine ([…]) were mixed with 1.7 ml reagent. […] All samples were processed in duplicates. Real time PCR for y-chromosomale DYS14 DNA was performed from duplicate samples.
To analyse the effect of pH on cell-free DNA preservation, urine from one donor was centrifuged twice to remove all cells from the urine for spike in into female urine. 200 ml urine each from four female donors were collected in large bottles and mixed with 25 ml cell-free male urine directly after collection. […]

[2] = tested on: human 18S rDNA gene, 66 bp amplicon; assay: Real time PCR of 18S rDNA 66 bp fragment in cell-free DNA from urine
Description: as §1
Total quantification was achieved by comparison with a standard curve generated with human genomic DNA samples equivalent to 10.000 to 10 copies of human 18s rDNA gene.
Quantification of the 500 bp was used to determine the amount of 18S rDNA copies which derived from apoptotic or mechanically lysed urine cells. […] Therefore 500 bp fragments can be considered to be derived from apoptotic, lysed or otherwise destructed urine cells.
All samples were processed in duplicates.
as §2
200 ml urine each from three donors was collected. […] For processing, the samples were centrifuged 15 min at 1900×g. Supernatant was centrifuged again (10 min 1900×g) and the supernatant from the second centrifugation was used for duplicate purification of cell-free DNA on a QIAsymphony system. The cell pellet obtained after the first centrifugation was resolved in 300 μl PBS. 200 μl of the resuspended cell pellet was used for extraction of the genomic DNA using the QIAamp Blood Mini kit. The remaining 100 μl were centrifuged on a glass slide and stained with Papanicolaou (see FIG. 7). […] Genomic DNA yield was measured on a Nanodrop instrument.
Supernatant was centrifuged again (10 min at 1900×g) and the supernatant from the second centrifugation was used for duplicate purification of cell-free DNA on the QIAsymphony.
For EDTA stabilized samples the overall increase in DNA can be deduced from the observed degradation (Dys 14—see FIG. 16) and increase (18s—see FIGS. 14 and 15).

[3] = tested on: human 18S rDNA gene, 500 bp amplicon; conditions: t0 to t4 d storage (FIG. 15)
Description: Cell-free DNA from 4-4.8 ml stabilized or unstabilized urine was isolated with the QIAsymphony PAXgene Blood ccfDNA Kit (QIAGEN kit) protocol. The QIAsymphony robot mixed urine with proteinase K, binding buffer and magnetic beads. Beads with bound DNA were washed three times and DNA was eluted using 60 μl elution buffer.
To measure the amount of cell-free DNA a real time PCR assay on Abi Prism HT7900 (Life technologies) was performed with 8 μl of eluate. In a 20 μl assay volume using QuantiTect Multiplex PCR Kit reagents (QIAGEN GmbH) two fragments of the human 18S rDNA gene were amplified in a multiplex PCR. Total quantification was achieved by comparison with a standard curve generated with human genomic DNA samples equivalent to 10.000 to 10 copies of human 18s rDNA gene.
Quantification of the 66 bp fragment was used to reflect the total amount of 18S rDNA copies in the urine. Quantification of the 500 bp was used to determine the amount of 18S rDNA copies which derived from apoptotic or mechanically lysed urine cells.
200 ml urine each from four female and two male donors was collected. Aliquots of 10 ml urine were mixed within 15 min after sampling with 1.7 ml PBS or stabilizing reagent. […] The copy numbers of 18s rDNA were determined from duplicate samples in triplicates by real time PCR.

O=C(O)CN(CCN(CC(=O)O)CC(=O)O)CC(=O)O [EDTA, Ethylenediaminetetraacetic acid]
preservation of spiked in male cell-free DNA (DYS14 delta Ct versus t0), words ([1]; Example 2, 2 female donors, 1, 3 and 9 days at RT (FIG. 4)): neither prevents sufficiently cell free DNA degradation | Delta Ct t0-t4 d Dys 14 ([1]; male cell-free urine spiked in female urine, 4 days storage at RT (FIG. 16)): ~2 | Reduction (of DYS14 DNA, from Delta Ct) ([1]; t0 to t4 d at RT): 4 fold | Delta Ct t0-t4 d 18 s 66 bp ([2]; 4 days storage at RT (FIG. 14)): 2 | total DNA in urine over storage (18s rDNA 66 bp copies versus t0), words ([2]; Example 2, BD Vacutainer cup to tubes, 1, 3 and 9 days at RT, 4 donors (FIG. 3)): nor an increase in total DNA comprised in the urine due to DNA release from cells | Overall increase (in DNA resulting from cells) ([2]; deduced from observed degradation (Dys 14) and increase (18s), t0 to t4 d): 4 × 4 = 16 fold | Increase (of 18S 66 bp DNA, from Delta Ct) ([2]; t0 to t4 d at RT): 4 fold | change in the 66 bp fragment ([2]; t0 to t4 d storage (FIG. 14)): small increase | decrease in the 500 bp fragment [3]: approx. 32 fold
